Laboratory results from patent US5658880A, “Sialic acid/fucose based medicaments” (Glycomed Incorporated, priority 1994, dated 1997).

Tests used:
L-selectin = experiment: ELISA: inhibition of L-selectin-IgG chimera binding to 2,3 sLe^x glycolipid; design: species or system human
Excerpt: (§1) An ELISA assay is preferably used that employs recombinant fusion proteins composed of extracellular portions of the human selectins joined to human immunoglobulin heavy chain CH3, CH2, and hinge regions. See, for example, Walz et al., Science (1990) 250:1132; Aruffo et al., Cell (1991) 67:35; Aruffo et al., Proc. Natl. Acad. Sci. USA. (1992) 89:2292. The assay is well known in the art, and generally consists of the following three steps:
(§2) I. 2,3 sLe^x glycolipid (25 picomole/well) was transferred into microtiter wells as solutions and then evaporated off. Excess, which remained unattached, was washed off with water. The wells were then blocked with 5% BSA at room temperature for an hour and then washed with PBS containing 1 mM calcium.
(§3) II. Preparation of "multivalent" receptor of the Selectin-lgG chimera was carried out by combining the respective chimera (1 μg/mL) with biotin labelled goat F(ab')2 anti-human IgG (Fc specific) and streptavidin-alkaline phosphatase diluted 1:1000 in 1% BSA-PBS (1 mM calcium) and incubating at 37° C. for 15 min. This allowed the soluble multivalent receptor complex to form. III. Potential inhibitors such as the compounds of formula I or II were allowed to react with the soluble receptor at 37° C. for 45 min. This test assumes that optimal binding, between the soluble phase receptor complex and the inhibitor (non natural ligand), would have occurred within this time frame. This solution was then placed in the microtiter wells that were prepared in step I. The plate was incubated at 37° C. for 45 minutes to allow the soluble receptor to bind to its natural ligand. In the presence of a strong inhibitor only a few receptors should be free to bind to the microtiter plate coated with the natural ligand.
(§4) The positive control is the signal produced by the soluble receptor when it is allowed to react with 2,3 sLe^x glycolipid in the microtiter wells in the absence of any inhibitor. This positive control was considered 100% binding. The signal produced by the receptor that had been previously treated with an inhibitor (recorded as O.D.), was divided by the signal produced by the positive control and multiplied by 100 to calculate the % receptor bound to the well in the presence of the inhibitor. The reciprocal of this number is the % inhibition.
as §1, with “was employed” for “is preferably used”, “uses” for “employs”, “USA” for “USA.”
(§5) II. Preparation of "multivalent" receptor of the Selectin-IgG chimera was carried out by combining the respective chimera 1 μg/ml) with biotin labelled goat F(ab')2 anti-human IgG (Fc specific) and streptavidin-alkaline phosphatase diluted 1:1000 in 1% BSA-PBS (1 mM calcium) and incubating at 37° C. for 15 min. This allowed the soluble multivalent receptor complex to form.
(§6) III. Potential inhibitors such as compounds of formula I or II were allowed to react with the soluble receptor at 37° C. for 45 min. This test assumes that optimal binding, between the soluble phase receptor complex and the inhibitor (non natural ligand), would have occurred within this time frame. This solution was then placed in the microtiter wells that were prepared in step I. The plate was incubated at 37° C. for 45 minutes to allow the soluble receptor to bind to its natural ligand. In the presence of a strong inhibitor only a few receptors should be free to bind to the microtiter plate coated with the natural ligand.
(§7) The positive control is the signal produced by the soluble receptor when it is allowed to react with 2,3 sLe^x glycolipid in the microtiter wells in the absence of any inhibitor. This was considered 100% binding. […]

P-selectin = experiment: ELISA: inhibition of P-selectin-IgG chimera binding to 2,3 sLe^x glycolipid; design: species or system human; conditions: inhibition of binding to 2,3 sLex glycolipid
Excerpt: as §1, §2, §3, §4
as §1, with “was employed” for “is preferably used”, “uses” for “employs”, “USA” for “USA.”
as §5, §6, §7

[1] = test system: neutrophil migration into the peritoneum; experiment: Murine thioglycollate induced peritonitis: neutrophil migration to the peritoneal cavity; assay type: in vivo, mouse (Swiss Webster)
Excerpt: The efficaciousness of 7 and 10 was shown using a murine thioglycollate induced peritonitis model. The assay materials and methods are known in the art, or are generally described by Lewinsohn, D. et al., J. Immun., 138:4313-4321 (1987), or Watson, S. et al., Nature 349:164-166 (1991). This assay measures the ability of the compounds to inhibit neutrophil migration to the peritoneal cavity, the migration being initiated by the presence of thioglycollate in the peritoneal cavity. Thioglycollate is a known and effective inflammatory agent that causes neutrophil migration into the mouse peritoneum when it is administered intraperitoneally. Lewinsohn, D. et al., J. Immun. (1987) 138:4313-4321. Briefly, female Swiss Webster mice weighing about 25 grams were injected in the tail vein with 200 μl of phosphate buffered saline (PBS) with or without the appropriate compound. The pH of the solutions was adjusted to neutrality by the addition of either NaOH or HCL and sterilized by filtration through a 0.2 μ filter. Immediately following injection with the appropriate compound or PBS, the mice were injected intraperitoneally with 1 ml of thioglycollate medium prepared as described by the manufacturer, BBL. Three hours following injection of the thioglycollate solution the mice were sacrificed by CO2 asphyxiation, and the number of cells in the peritoneum removed by lavage with 5 ml of heparinized (5 U/ml) 0.9% sodium chloride solution containing 0.1% bovine serum albumin. Cell number was determined using a Coulter Counter. The cells were prepared for counting by diluting the lavage fluid with 1:50 of a commercial physiological isotonic solution, Isoton II, and the cells lysed by adding S/P Lysing and Hemoglobin Reagent (1:100 final dilution). Cell nuclei were counted in a sized window with lower and upper limits set at 3.9 and 5.7 μm, respectively.

human neutrophils = experiment: Reperfusion injury assay: complement-induced human neutrophil adhesion in rabbit isolated heart; design: species or system human neutrophils; New Zealand White rabbit heart; conditions: 4% normal human plasma, 0.1 mg/ml (0.001, 0.01 and 0.1 mg/ml tested), read-out: % Neutrophil Inhibition (neutrophil accumulation)
Excerpt: Experiments were done to determine the effectiveness of compound 7 in decreasing adhesion of human neutrophils in the rabbit isolated heart. Addition of the human plasma to the rabbit isolated heart results in activation of the complement components found within the plasma, which in turn promotes an increase in the neutrophil accumulation. This model is used to determine the effect of sLe^x analogues on inhibiting complement-induced neutrophil adhesion. Hearts from New Zealand White rabbits were excised, mounted on a modified Langendorff apparatus and perfused with Krebs-Heinseleit buffer. Cardiac functional parameters were monitored upon a Grass Model 79D polygraph machine. 4% normal human plasma (NHP) was added to the recirculating buffer. Ten minutes after the addition of the plasma, 13b (0.1 mg/ml) was added to the perfusate. After 15 minutes of perfusion with the plasma, 51-chromium labelled human neutrophils (1×10^5 /ml) were added to the perfusate and allowed to recirculate for an additional 15 minutes. At the end of this time the hearts were washed with fresh buffer to remove non-specifically bound neutrophils, dried and counted in a well type gamma-counter. A concentration response curve was generated using concentrations of 0.001, 0.01 and 0.1 mg/ml. […] Table 3 lists the results, expressed as the percent inhibition of neutrophil accumulation.

IC50 (L-selectin; inhibition of binding to 2,3 sLex glycolipid): 1 to 3 mM
IC50 (P-selectin): > 4 mM
SMILES: CC(=O)NC1C(O)CC(OCCCCCCOC2OC(C)C(O)C(O)C2O)(C(=O)O)OC1C(O)C(O)CO [Compound 7, 1-O-α-Neu5Ac-(6-O-α-L-Fucopyranosyl)-Hexane]
inhibition of L-selectin binding to 2,3 sLe^x glycolipid (L-selectin; FIG. 5 and FIG. 6, result in words): inhibit L-selectin binding in a concentration dependent manner
inhibited more neutrophil migration than 10 ([1]; 7 compared with 10, FIG. 7): about 30%
inhibit neutrophil migration into the peritoneum ([1]; mice, tail vein injection, 3 h after thioglycollate, FIG. 7(a) and (b)): inhibit neutrophil migration into the peritoneum
inhibition at 100 µg/mL (human neutrophils): 30%
